Source: patent EP1142881A1, “POLY(ADP-RIBOSE) POLYMERASE INHIBITORS CONSISTING OF PYRIMIDINE DERIVATIVES” (Meiji Seika Kaisha, Ltd., priority 1999, dated 2000)

What follows are compounds tested against T1, PARP (Rattus norvegicus, UniProt P27008) (assay: Measurement of PARP enzyme activity). Details: soluble nuclear fraction of Wistar rat forebrain as enzyme source; 250 µM NAD, 32P-NAD; 37°C for 30 minutes; 6 concentrations; read-out: PARP inhibitory activity IC50.
T1 construct: Nucleus obtained by centrifugation was extracted with 0.4 M NaCl and the resulting soluble fraction was used as a source of PARP enzyme; from tissue; host or cells: Wistar rat forebrain, nuclear 0.4 M NaCl soluble fraction
T1 sequence (P27008 whole entry): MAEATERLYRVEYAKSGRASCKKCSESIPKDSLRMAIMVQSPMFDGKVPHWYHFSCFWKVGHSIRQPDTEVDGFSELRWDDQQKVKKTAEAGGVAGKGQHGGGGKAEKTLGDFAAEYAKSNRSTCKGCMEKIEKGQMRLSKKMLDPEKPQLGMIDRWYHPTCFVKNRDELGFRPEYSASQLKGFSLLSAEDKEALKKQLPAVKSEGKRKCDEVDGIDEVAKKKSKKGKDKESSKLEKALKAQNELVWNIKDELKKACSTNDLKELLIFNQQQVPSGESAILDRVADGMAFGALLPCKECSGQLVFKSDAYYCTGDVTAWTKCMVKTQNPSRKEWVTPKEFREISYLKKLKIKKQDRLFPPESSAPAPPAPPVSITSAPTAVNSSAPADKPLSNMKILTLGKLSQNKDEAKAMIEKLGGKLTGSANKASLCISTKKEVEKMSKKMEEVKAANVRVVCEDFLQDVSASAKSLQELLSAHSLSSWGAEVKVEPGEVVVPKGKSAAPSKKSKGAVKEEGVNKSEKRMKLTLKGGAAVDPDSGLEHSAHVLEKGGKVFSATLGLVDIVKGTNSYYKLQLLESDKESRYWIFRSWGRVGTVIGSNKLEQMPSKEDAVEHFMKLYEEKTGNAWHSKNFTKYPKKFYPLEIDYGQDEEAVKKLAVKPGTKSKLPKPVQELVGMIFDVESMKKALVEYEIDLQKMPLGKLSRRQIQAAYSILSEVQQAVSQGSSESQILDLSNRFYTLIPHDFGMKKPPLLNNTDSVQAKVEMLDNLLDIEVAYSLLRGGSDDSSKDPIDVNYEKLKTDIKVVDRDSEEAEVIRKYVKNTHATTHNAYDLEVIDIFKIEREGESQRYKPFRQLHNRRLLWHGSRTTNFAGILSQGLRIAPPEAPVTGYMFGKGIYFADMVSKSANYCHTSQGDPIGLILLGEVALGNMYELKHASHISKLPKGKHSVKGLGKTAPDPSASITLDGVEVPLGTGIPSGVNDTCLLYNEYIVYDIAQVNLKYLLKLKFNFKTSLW
Format: biochemical, Wistar rats
Description: Test method: The forebrain was collected from Wistar rats and homogenized. Nucleus obtained by centrifugation was extracted with 0.4 M NaCl and the resulting soluble fraction was used as a source of PARP enzyme source. […] Incubation was carried out at 37°C for 30 minutes, and then the reaction was stopped with 20%trichloroacetic acid. The acid-insoluble fraction produced above was adsorbed to a GF/B filter, and the filter was washed several times, and then radioactivity on the filter was measured by using a liquid scintillation counter. The PARP activity was measured by subtracting radioactivity as a blank value of a sample not added with the enzyme source. […]

Question: Which IC50 does the source give for O=c1[nH]cnc2c1CSCC2 [Example 3, 3,5,7,8-Tetrahydrothiopyrano[4,3-d]pyrimidin-4-one] here?
Answer: 1460 nM

Question: With O=c1[nH]c(-c2ccccc2)nc2c1CSCC2 [Example 4, 2-Phenyl-3,5,7,8-tetrahydrothiopyrano[4,3-d]pyrimidin-4-one] as the compound, how does the IC50 read?
Answer: 410 nM

Question: With C=C1CSCc2c1nc(C)[nH]c2=O [Example 20, 2-Methyl-8-methylene-3,5,7,8-tetrahydrothiopyrano[4,3-d]pyrimidin-4-one] as the compound, how does the IC50 read?
Answer: 250 nM

Question: COCC=C1CSCc2c1nc(C)[nH]c2=O [Example 39, 8-(2-Methoxyethylidene)-2-methyl-3,5,7,8-tetrahydrothiopyrano-[4,3-d]pyrimidin-4-one] was tested. Which IC50 did it give?
Answer: 440 nM

Question: With C=C1CCCc2c1nc(C)[nH]c2=O [Example 21(A), 2-Methyl-8-methylene-5,6,7,8-tetrahydro-3H-quinazolin-4-one] as the compound, how does the IC50 read?
Answer: 350 nM
